In ChEMBL document CHEMBL5723035, “Affinity Biochemical Literature for EUbOPEN Chemogenomic Library” (2024):

Columns and labels:
Acid ceramidase = Acid ceramidase (Homo sapiens, UniProt Q13510); assay: Affinity Biochemical interaction: (inhibition of substrate hydrolysis determined through mass spectrometry) EUB0002527a ASAH1; assay type: functional; design: mode of action Inhibitor, recommended concentration 1 uM
[1] = target: Bromodomain-containing protein 4 (Homo sapiens, UniProt O60885); assay: Affinity Biochemical interaction: (TR-FRET) EUB0002661a BRD4; assay type: functional; design: mode of action Inhibitor, recommended concentration 1 uM
[2] = target: Alpha-ketoglutarate-dependent dioxygenase alkB homolog 3 (Homo sapiens, UniProt Q96Q83)
Alpha-ketoglutarate-dependent dioxygenase alkB homolog 3, sequence (Q96Q83 whole entry): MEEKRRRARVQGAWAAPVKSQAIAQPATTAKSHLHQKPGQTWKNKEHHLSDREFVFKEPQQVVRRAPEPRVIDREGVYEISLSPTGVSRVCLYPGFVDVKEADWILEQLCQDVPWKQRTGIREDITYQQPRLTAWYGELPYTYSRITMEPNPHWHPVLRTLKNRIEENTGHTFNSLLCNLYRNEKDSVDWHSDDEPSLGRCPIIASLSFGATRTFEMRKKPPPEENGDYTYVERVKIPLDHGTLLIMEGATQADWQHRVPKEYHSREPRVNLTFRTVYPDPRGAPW

[3] = target: sn-1-specific diacylglycerol lipase ABHD11 (Homo sapiens, UniProt Q8NFV4); assay: Affinity Biochemical interaction: (fluorescence-based biochemical gel-based Activity-Based Protein Profiling (ABPP)) EUB0002643a ABHD11; assay type: functional; design: mode of action Inhibitor, recommended concentration 1 uM
[4] = target: Triacylglycerol hydrolase DDHD2 (Homo sapiens, UniProt O94830); assay: Affinity Biochemical interaction: (Gel-based competitive activity-based protein profiling with HT-01 probe and membranes) EUB0002612a DDHD2; assay type: functional, cell membranes; design: mode of action Inhibitor, recommended concentration 1 uM
[5] = target: Arginase-2, mitochondrial (Homo sapiens, UniProt P78540); assay: Affinity Biochemical interaction: (competitive binding assay with radiolabelled [guanido-14C][…] as substrate) EUB0002484aCl ARG2; design: mode of action Inhibitor, recommended concentration 1 uM
Arginase-2, mitochondrial, sequence (P78540 whole entry): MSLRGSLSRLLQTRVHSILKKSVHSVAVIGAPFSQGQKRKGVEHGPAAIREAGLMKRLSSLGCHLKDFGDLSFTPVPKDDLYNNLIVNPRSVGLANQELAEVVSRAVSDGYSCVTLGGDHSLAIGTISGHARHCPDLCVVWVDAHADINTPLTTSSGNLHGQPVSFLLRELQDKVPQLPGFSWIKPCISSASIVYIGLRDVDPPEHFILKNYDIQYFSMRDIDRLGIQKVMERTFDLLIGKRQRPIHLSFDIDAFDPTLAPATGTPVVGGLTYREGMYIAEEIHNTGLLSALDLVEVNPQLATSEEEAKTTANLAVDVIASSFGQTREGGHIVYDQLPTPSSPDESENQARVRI

[6] = target: T1, Protein arginine N-methyltransferase 5 (Homo sapiens, UniProt O14744); assay: Affinity Biochemical interaction: (inhibition of histone H4 methylation) EUB0002319a PRMT5; assay type: functional; design: mode of action Inhibitor, recommended concentration 1 uM
T1 sequence (O14744 whole entry): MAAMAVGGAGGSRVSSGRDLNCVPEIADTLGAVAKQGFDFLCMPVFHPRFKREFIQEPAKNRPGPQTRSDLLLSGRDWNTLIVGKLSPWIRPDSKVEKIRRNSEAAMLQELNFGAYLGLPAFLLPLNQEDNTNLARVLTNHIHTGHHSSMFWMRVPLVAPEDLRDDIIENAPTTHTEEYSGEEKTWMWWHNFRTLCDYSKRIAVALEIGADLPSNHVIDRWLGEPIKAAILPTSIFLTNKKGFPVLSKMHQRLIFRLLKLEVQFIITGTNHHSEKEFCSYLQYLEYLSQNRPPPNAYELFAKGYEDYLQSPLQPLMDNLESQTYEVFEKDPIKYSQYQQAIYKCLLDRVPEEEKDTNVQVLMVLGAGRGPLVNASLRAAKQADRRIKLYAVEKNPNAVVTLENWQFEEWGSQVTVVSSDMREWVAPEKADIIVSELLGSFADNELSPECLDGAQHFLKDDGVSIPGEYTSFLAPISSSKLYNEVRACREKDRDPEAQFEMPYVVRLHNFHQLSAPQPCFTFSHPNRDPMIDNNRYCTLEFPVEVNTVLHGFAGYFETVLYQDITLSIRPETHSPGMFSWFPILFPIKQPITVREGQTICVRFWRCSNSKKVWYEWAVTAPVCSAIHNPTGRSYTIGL

[7] = target: T1, Protein arginine N-methyltransferase 5; assay: Affinity Biochemical interaction: (inhibition of histone H4 (1-21) methylation) EUB0002319a PRMT5; assay type: functional; design: mode of action Inhibitor, recommended concentration 1 uM
[8] = target: T2, Histone-lysine N-methyltransferase SETD7 (Homo sapiens, UniProt Q8WTS6); assay: Affinity Biochemical interaction: (inhibition of histone H3 methylation) EUB0002319a SETD7; assay type: functional; design: mode of action Inhibitor, recommended concentration 1 uM
T2 sequence (Q8WTS6 whole entry): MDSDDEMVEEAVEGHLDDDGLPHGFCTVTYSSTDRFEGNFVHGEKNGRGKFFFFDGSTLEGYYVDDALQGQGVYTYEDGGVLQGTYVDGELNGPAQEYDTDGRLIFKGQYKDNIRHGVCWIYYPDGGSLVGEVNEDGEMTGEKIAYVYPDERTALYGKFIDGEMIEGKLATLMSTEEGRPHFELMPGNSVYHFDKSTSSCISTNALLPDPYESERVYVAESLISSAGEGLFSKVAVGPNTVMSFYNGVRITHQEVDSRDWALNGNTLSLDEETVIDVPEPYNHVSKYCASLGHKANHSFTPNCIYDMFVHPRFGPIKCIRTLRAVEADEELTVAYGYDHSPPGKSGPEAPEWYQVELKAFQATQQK

[9] = target: T2, Histone-lysine N-methyltransferase SETD7; assay: Affinity Biochemical interaction: (inhibition of histone H3(1-21) methylation) EUB0002319a SETD7; assay type: functional; design: mode of action Inhibitor, recommended concentration 1 uM
Procathepsin L = Procathepsin L (Homo sapiens, UniProt P07711); assay: Affinity Biochemical interaction: (enzymatic assay (fluorogenic substrate cleavage)) EUB0002529a CTSL; assay type: functional; design: mode of action Inhibitor, recommended concentration 1 uM
Procathepsin L, sequence (P07711 whole entry): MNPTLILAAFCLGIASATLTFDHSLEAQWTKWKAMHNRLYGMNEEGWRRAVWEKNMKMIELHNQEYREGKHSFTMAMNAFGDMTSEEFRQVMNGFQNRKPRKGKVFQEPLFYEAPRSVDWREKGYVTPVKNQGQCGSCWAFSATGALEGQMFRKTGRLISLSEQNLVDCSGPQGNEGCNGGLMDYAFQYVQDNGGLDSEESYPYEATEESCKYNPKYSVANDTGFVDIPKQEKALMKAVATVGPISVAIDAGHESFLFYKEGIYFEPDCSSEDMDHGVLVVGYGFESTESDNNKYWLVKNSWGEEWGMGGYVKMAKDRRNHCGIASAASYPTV

[10] = target: Histone acetyltransferase p300 (Homo sapiens, UniProt Q09472); assay: Affinity Biochemical interaction: (inhibition of acetyl-transferase reaction) EUB0002628aAD EP300; assay type: functional; design: mode of action Inhibitor, recommended concentration 1 uM
[11] = target: T3, Breast cancer type 1 susceptibility protein (Homo sapiens, UniProt P38398); assay: Affinity Biochemical interaction: (Fluorescence polarisation assay) EUB0002518a BRCA1; assay type: functional; design: mode of action Inhibitor, recommended concentration 1 uM
T3 sequence (P38398 whole entry): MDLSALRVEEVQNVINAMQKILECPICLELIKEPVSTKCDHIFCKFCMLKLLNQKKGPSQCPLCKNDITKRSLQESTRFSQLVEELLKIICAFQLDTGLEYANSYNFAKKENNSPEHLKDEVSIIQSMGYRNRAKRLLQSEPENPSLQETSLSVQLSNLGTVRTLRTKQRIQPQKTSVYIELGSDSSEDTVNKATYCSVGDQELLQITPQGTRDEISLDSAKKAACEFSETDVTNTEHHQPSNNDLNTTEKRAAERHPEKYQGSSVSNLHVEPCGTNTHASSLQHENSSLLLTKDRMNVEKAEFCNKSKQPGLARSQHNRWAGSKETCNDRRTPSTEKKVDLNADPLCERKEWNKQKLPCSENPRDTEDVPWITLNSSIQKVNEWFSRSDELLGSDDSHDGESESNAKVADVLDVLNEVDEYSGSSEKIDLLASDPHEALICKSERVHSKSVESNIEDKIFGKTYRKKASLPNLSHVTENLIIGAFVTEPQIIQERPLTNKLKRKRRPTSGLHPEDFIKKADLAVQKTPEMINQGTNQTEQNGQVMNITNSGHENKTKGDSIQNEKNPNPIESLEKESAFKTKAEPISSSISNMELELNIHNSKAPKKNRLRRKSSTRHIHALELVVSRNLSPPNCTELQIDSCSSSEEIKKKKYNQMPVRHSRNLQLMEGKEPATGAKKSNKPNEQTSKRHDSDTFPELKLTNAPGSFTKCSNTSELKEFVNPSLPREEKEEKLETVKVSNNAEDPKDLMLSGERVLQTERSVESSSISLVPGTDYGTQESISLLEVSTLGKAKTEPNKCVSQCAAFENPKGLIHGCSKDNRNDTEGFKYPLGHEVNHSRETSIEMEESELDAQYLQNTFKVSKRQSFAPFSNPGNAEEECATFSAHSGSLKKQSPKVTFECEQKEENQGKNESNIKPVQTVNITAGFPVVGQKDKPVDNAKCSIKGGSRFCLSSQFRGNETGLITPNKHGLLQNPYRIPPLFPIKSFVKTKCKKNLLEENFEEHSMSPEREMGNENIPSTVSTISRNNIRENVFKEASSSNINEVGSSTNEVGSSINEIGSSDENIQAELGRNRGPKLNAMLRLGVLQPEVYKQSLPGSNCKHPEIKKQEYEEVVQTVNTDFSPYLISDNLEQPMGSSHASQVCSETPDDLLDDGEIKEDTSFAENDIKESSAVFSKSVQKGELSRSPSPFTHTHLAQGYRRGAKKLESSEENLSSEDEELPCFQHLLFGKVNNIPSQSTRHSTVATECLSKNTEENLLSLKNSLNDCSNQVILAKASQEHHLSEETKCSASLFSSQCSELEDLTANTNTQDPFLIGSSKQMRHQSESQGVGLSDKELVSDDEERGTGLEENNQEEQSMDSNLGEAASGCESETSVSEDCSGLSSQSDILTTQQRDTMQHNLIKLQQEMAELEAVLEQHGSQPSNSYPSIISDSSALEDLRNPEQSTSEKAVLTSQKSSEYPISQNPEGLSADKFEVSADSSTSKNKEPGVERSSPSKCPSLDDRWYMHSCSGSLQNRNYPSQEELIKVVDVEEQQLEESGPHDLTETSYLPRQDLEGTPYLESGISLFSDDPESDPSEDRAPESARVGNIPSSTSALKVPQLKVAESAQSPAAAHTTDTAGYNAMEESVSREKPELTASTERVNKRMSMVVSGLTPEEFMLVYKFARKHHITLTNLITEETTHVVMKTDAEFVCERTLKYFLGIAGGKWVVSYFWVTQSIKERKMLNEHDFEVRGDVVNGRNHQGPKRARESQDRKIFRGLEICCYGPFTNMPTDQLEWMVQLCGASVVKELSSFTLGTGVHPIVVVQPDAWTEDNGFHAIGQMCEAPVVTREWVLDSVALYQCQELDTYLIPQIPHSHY

[12] = target: T3, Breast cancer type 1 susceptibility protein; assay: Affinity Biochemical interaction: (ITC) EUB0002518a BRCA1; design: mode of action Inhibitor, recommended concentration 1 uM
[13] = target: Ubiquitin carboxyl-terminal hydrolase 14 (Homo sapiens, UniProt P54578)
Ubiquitin carboxyl-terminal hydrolase 14, sequence (P54578 whole entry): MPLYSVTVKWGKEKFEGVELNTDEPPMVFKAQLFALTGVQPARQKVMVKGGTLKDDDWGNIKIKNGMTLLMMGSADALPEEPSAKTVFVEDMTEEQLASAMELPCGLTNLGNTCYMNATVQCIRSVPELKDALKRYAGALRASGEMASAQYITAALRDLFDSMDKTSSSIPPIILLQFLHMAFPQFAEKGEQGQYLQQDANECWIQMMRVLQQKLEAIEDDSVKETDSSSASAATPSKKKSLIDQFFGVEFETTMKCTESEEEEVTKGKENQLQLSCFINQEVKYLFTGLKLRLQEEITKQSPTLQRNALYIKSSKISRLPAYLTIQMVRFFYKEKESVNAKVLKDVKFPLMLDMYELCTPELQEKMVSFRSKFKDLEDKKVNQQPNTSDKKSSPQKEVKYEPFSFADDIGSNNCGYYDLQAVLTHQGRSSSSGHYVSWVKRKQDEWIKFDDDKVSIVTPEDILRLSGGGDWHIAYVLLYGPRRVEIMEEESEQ

[14] = target: T4, Equilibrative nucleoside transporter 1 (Homo sapiens, UniProt Q99808); assay: Affinity Biochemical interaction: (inhibition of [3H]nitrobenzylthioinosine binding to SLC29A1 in membranes) EUB0002560a SLC29A1; assay type: cell membranes; design: mode of action Inhibitor, recommended concentration 1 uM
T4 sequence (Q99808 whole entry): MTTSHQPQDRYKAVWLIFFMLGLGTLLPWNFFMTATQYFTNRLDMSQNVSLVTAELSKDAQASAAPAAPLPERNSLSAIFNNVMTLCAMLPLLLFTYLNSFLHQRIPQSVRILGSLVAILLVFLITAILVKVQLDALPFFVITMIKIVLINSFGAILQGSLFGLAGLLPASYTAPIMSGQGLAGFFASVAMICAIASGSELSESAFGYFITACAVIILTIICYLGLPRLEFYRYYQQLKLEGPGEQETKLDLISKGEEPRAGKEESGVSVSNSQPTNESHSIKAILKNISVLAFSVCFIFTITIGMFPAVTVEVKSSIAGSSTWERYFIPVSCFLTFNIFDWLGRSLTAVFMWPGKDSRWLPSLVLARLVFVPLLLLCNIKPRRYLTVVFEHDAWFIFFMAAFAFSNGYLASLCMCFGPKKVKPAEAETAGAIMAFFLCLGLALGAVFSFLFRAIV

[15] = target: T4, Equilibrative nucleoside transporter 1; assay: Affinity Biochemical interaction: (radioligand binding assay, inhibition of [3H]S-(4-Nitrobenzyl)-6-thioinosine binding to target) EUB0002560a SLC29A1; design: mode of action Inhibitor, recommended concentration 1 uM
[16] = target: Protein-arginine deiminase type-4 (Homo sapiens, UniProt Q9UM07); assay: Affinity Biochemical interaction: (enzyme inhibition, detection of citrullated histone H3 by either immunoblot with LiC or quantitation or an ELISA-based assay using anti-citrullated histone H3 rabbit polyclonal antibody) EUB0002517a PADI4; assay type: functional; design: mode of action Inhibitor, recommended concentration 1 uM

An IC50 (Acid ceramidase) of 29 nM was found for `CCCCCCNC(=O)n1cc(F)c(=O)[nH]c1=O` [CARMOFUR] in this work.

An IC50 [1] of 2.7 nM was found for `Cc1nnn(C)c1-c1cnc2c3cc4cnn(C)c4cc3n([C@H](c3ccccc3)C3CCOCC3)c2c1` in this work.

An IC50 [2] of 670 nM was found for `Cc1ccc2[nH]c(-n3nc(C)c(Cc4ccccc4)c3O)nc2c1` in this work.

An IC50 [3] of 15 nM was found for `CCC1CCCCN1C(=O)n1ncc(C(O)(c2ccccc2)c2ccccc2)n1` (stereo not drawn) in this work.

An IC50 [4] of 1.3 nM was found for `O=C(N(CCc1ccccc1)C1CCCCC1)n1ncc(-c2ccc(OC(F)(F)F)cc2)n1` in this work.

A Ki [5] of 250 nM was found for `N[C@@H](CCCCB(O)O)C(=O)O` in this work.

An IC50 [6] of 690 nM, an IC50 [7] of 310 nM and an IC50 [8] of 9.1 µM were found for `Nc1ncnc2c1ncn2[C@@H]1O[C@H](C[C@@H](N)CC[C@H](N)C(=O)O)[C@@H](O)[C@H]1O` [SINEFUNGIN] in this work. It also gave an IC50 [9] of 2380 nM.

A Ki (Procathepsin L) of 82 nM was found for `Cn1nc(C(C)(C)C)cc1C(=O)NC(Cc1cccc(Cl)c1)C(=O)NCC#N` (stereo not drawn) in this work.

An IC50 [10] of roughly 50 nM was found for `CC(=O)N[C@@H](CCCCNC(=O)CSCCNC(=O)CCNC(=O)[C@H](O)C(C)(C)COP(=O)(O)OP(=O)(O)OC[C@H]1O[C@@H](n2cnc3c(N)ncnc32)[C@H](O)[C@@H]1OP(=O)(O)O)C(N)=O` in this work.

An IC50 [11] of 310 nM and a Kd [12] of 300 nM were found for `O=C(CNC(=O)[C@H](COP(=O)(O)O)NC(=O)CCc1c[nH]c2ccccc12)NCCCCc1ccccc1` in this work.

An IC50 [13] of 600 nM was found for `Cc1cc(C(=O)CN2CCCCC2)c(C)n1-c1ccc(Cl)cc1` in this work.

A Ki [14] of 0.28 nM and a Ki [15] of 0.94 nM were found for `NC(=O)C1CN(CCCCC(c2ccc(F)cc2)c2ccc(F)cc2)CCN1CC(=O)Nc1c(Cl)cc(N)cc1Cl` (stereo not drawn) [DRAFLAZINE] in this work.

An IC50 [16] of 98 nM was found for `COc1cc(C(=O)N2C[C@H](N)CC[C@@H]2C)cc2nc(-c3cc4cccnc4n3CC3CC3)n(C)c12` in this work.
